Source: publication PMC9697976, “Giardia lamblia G6PD::6PGL Fused Protein Inhibitors Decrease Trophozoite Viability: A New Alternative against Giardiasis” (International Journal of Molecular Sciences, 2022)
Read-outs that look alike come from different tables or passages of the source.

Columns and labels:
[1] = target: T1, G6PD::6PGL fused enzyme (Giardia intestinalis, UniProt A8BWM5); assay: Screening of in-house library on G6PD::6PGL activity at 400 µM; type: biochemical, Giardia lamblia
Method: The effects of 120 organic molecules from the in-house chemical library of compounds, which were synthesized in the Medicinal Chemistry Laboratory at the Pharmacy Faculty of the Autonomous University Morelos State, include mainly aromatic and non-aromatic heterocyclic compounds with heteroatoms such as nitrogen, oxygen, and sulfur, which were evaluated as possible specific inhibitors of G6PD::6PGL. The assay was carried out following what was reported by Martinez-Rosas et al.; each compound was dissolved in dimethyl sulfoxide (DMSO), and the recombinant enzyme G6PD::6PGL (0.2 mg/mL) was incubated with the compounds at a concentration of 400 µM, for 2 h, at 37 °C. The residual enzymatic activity of the G6PD domain was measured following the spectrophotometric NADP^+ reduction at 340 nm with the standard reaction mixture. Activity data were plotted as percent residual activity, where 100% activity was taken from enzyme samples incubated without a compound.

[2] = target: T1, G6PD::6PGL fused enzyme; assay: Enzymatic inhibition assay (concentration-dependent inactivation) of G6PD::6PGL; type: biochemical, Giardia lamblia; settings: for inhibition at 200 µM: read-out: Loss of initial G6PD::6PGL activity
Method: G6PD::6PGL protein was adjusted at 0.2 mg/mL and incubated in the presence of different concentrations of compounds (0–800 μM). After incubation, aliquots were withdrawn from the samples, and the residual activity was determined. The G6PD::6PGL without compounds was used to determine 100% activity. The assays were carried out in triplicate, and the data represent the mean ± standard error.
The IC50 values of the four selected compounds were determined. […] The assay was performed using a protein concentration of 0.2 mg/mL in buffer T (100 mM Tris–HCl, 30 mM MgCl2, pH 8) with different concentrations of the compounds (0 to 800 µM). The protein was incubated at 37 °C for 2 h after the residual activity of the G6PD domain was measured. The data were plotted as percent activity, where 100% was taken as the enzyme’s activity without compounds. All values were adjusted to the Boltzmann sigmoid equation in the Origin 8.0® program (Northampton, MA, USA) to obtain the IC50 value expressed in µM units.

[3] = target: T2, HsG6PD (Homo sapiens, UniProt P11413); assay: Effect of compounds on HsG6PD activity at 400 µM; type: biochemical
Description: Based on the above, we decided to evaluate the effect in vitro of the compounds in the inactivation of the G6PD::6PGL enzyme.

[4] = target: T1, G6PD::6PGL fused enzyme; assay: Second-order inactivation constant (k2) of G6PD::6PGL; type: biochemical, Giardia lamblia; settings: for kinact/KI: read-out: Second-order inactivation constant (k2)
Method: At the indicated times, aliquots were withdrawn from the samples and assayed for residual activity. Initial velocity was fitted to determine each compound’s pseudo-first-order inactivation constants (k1). […] All experiments were performed in triplicate.
Inactivation assays were performed to determine the rate of each to form the enzyme–inhibitor complex. First, the pseudo-first-order constants (k1) were obtained by incubating 0.2 mg/mL of pure G6PD::6PGL enzyme and different concentrations of compound (0 to 500 µM) at 37 °C in time intervals (0–120 min). After the incubation period, enzyme activity was measured spectrophotometrically following the reduction of NADP^+ at 340 nm for each experimental condition. The results were expressed in terms of the activity percentage against each compound’s concentration. The residual activity data were fitted to a mono-exponential decay model, using the equation AR=A0 e^−kt , where AR is the residual activity at different times, A0 is the activity at the initial time, and k is the pseudo-first-order inactivation constant (min^−1). Subsequently, the constants obtained were plotted against the corresponding inhibitor concentration. A linear regression model was applied to obtain the second-order inactivation constant k2 (M^−1 s^−1).

[5] = tested on: G. lamblia trophozoites; assay: Antigiardial activity, trophozoite viability (trypan blue); type: cell-based; settings: Giardia duodenalis, 48 h, read-out: IC50 G. lamblia (trophozoite viability)
Method: The trophozoites were incubated in the presence of compounds for 48 h at 37 °C with increasing concentrations of each of the compounds, and later the viability of the trophozoites was determined. The values represent mean ± standard deviation from three independent experiments, and standard errors of the mean were lower than 5%.
The Giardia lamblia WB strain (ATCC number 30957) was grown and cultivated in a modified TYI-S-33 medium supplemented with 10% fetal bovine serum at 37 °C. G. lamblia was harvested from a confluent culture by chilling the tubes on ice for 5–10 min to detach cells, followed by centrifugation at 800× g for 5 min. For the antigiardial activity assay, 5 × 10^4 trophozoites of G. lamblia were incubated with different concentrations of the compounds (31, 62, 125, 250, and 500 µM) in a final volume of 1.5 mL and then incubated for 48 h at 37 °C. After incubation, 75 µL of the treated trophozoites were subcultured individually for another 48 h in a fresh medium without compounds. At the end of this period, the viable trophozoites were counted using trypan blue. Each compound was assayed in three independent experiments. Appropriate controls were tested in each assay, including a sample without compounds and another with only 2% DMSO.

[6] = In vitro cytotoxicity, XTT assay, HT29; settings: human
Method: (§1) An XTT cell proliferation assay determined the viability.
(§2) The cytotoxicity assay was performed using human cell lines Caco-2 (ATCC HTB-37) and HT29 (ATCC HHTB-38) with a Cell Proliferation Kit II (XTT; St Louis, MO, USA). A cell suspension of 2 × 10^5 cells/mL was prepared in Dulbecco’s modified Eagle’s (DMEM) medium, supplemented with 10% inactivated fetal bovine serum and 1% penicillin/streptomycin (5000 U/mL), and 100 µL portions of the suspension were added to the wells of 96-well plates. The plates were incubated for 24 h at 37 °C in an atmosphere of 5% CO2. The medium in each well was replaced with 100 µL medium with compounds at 500, 250, 150, 75, 32, and 16 µM. After 48 h of incubation at 37 °C in an atmosphere of 5% CO2, the viability of cells was determined. The medium in each well was gently replaced with 100 µL of fresh medium, 50 µL of XTT labeling mixture was added per well, the mixture was incubated for four h at 37 °C and 5% CO2, and the absorbance at 495 nm was measured. Each compound was assayed in triplicate via three independent experiments. The CCI50 values were determined using the nonlinear regression function of GraphPad Prism version 6.04 for Windows.

[7] = tested on: HT29 cells; assay: In vitro cytotoxicity, XTT assay, HT29; settings: for Selectivity index (SI), CC50 HT29 / IC50 G. lamblia: ratio of CC50/IC50 between mammalian cells and trophozoites; for Decrease of HT29 cell viability: 250 µM compound
Method: as §1, §2

[8] = in vitro; settings: human, Caco-2
Method: as §1, §2

[9] = tested on: Caco-2 cells; assay: in vitro; settings: 250 µM compound
Method: as §1, §2

[10] = target: T2, HsG6PD; parameters: method as in earlier work; settings: ref 24 (Ramirez-Nava et al.); cited from earlier work
[11] = tested on: Caco-2 cells; settings: cited from earlier work
[12] = tested on: HT29 cells; settings: nitazoxanide; cited from earlier work
[13] = read-out: G6PD::6PGL Inhibition (%) at (400 μM)
[14] = read-out: G6PD::6PGL Inhibition (%) at (400 μM), 400 μM compound, 0.2 mg/mL enzyme, 2 h, 37 °C
[15] = 400 μM compound, read-out: HsG6PD Inhibition (%) at (400 μM)
[16] = read-out: G6PD::6PGL IC50, 0.2 mg/mL enzyme, 0–800 μM compound, 2 h, 37 °C

T1 sequence (A8BWM5 entry or part of it): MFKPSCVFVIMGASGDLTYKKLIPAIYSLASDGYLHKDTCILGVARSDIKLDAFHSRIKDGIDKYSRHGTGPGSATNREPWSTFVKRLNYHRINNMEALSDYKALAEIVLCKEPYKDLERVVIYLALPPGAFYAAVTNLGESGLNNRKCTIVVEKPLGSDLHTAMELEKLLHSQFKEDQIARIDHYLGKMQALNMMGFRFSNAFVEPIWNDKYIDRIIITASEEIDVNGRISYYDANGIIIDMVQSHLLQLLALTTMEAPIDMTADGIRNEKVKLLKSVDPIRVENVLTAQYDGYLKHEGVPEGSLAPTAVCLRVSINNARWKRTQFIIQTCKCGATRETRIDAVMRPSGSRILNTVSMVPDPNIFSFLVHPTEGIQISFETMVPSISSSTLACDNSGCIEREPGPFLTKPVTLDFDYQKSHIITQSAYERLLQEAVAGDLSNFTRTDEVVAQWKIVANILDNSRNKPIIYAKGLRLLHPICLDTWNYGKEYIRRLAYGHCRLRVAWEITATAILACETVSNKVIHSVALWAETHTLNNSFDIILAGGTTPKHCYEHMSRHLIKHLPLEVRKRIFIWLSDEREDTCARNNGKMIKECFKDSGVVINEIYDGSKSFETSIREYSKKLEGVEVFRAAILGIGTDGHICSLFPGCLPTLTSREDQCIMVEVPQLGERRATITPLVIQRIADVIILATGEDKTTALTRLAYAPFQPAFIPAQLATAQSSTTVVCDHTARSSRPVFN
T2 sequence (P11413 whole entry): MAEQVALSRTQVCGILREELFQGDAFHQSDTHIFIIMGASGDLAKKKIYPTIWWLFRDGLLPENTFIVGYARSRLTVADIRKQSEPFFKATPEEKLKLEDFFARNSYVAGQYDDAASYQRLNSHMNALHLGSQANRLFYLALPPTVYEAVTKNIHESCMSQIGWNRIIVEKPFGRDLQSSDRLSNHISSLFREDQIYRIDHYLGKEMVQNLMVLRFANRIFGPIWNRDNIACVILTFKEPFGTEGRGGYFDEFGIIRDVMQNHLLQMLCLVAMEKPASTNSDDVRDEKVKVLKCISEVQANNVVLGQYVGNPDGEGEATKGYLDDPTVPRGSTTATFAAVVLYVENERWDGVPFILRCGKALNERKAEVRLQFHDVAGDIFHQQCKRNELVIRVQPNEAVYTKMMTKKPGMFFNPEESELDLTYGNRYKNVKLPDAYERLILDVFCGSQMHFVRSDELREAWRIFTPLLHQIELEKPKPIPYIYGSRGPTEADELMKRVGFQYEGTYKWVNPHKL

| SMILES | IC50 [2] [µM] | inhibition at 400 µM [1, 14] [%] | inhibition at 400 µM [3, 15] [%] | inhibition at 200 µM ([2]; 2 h) [%] | IC50 [2, 16] [µM] | kinact/KI [4] [M⁻¹ s⁻¹] | IC50 ([5]; 37 °C, WB strain) [µM] | Selectivity index (SI), CC50 HT29 / IC50 G. lamblia [7] | CC50 at 48 h [8] [µM] | selectivity ratio at 48 h [8] | Decrease of HT29 cell viability [7] [%] | Decrease of Caco-2 cell viability [9] | further results |
| --- | --- | --- | --- | --- | --- | --- | --- | --- | --- | --- | --- | --- | --- |
| O=C1CC(=O)NC(=O)N1 [Barbituric acid, reference compound] | > 500 | – | – | – | – | – | – | – | – | – | – | – | inhibition at 400 µM [1, 13]: 0% |
| CCCCCC(=O)Nc1nc([N+](=O)[O-])cs1 [FLP-2] | – | 89 | ~20 | 40 | 256 | 0.82 | 15.3 | 125 | 3180 | 208 | – | – | CC50 at 48 h ([6]; HT29 cells): 1910 µM |
| O=C1NC(=O)C(=Cc2ccc(OCc3ccccc3)cc2)C(=O)N1 [CMC-1] | 70 | – | – | 100 | – | – | – | – | – | – | 25 | approximately 20% | inhibition at 400 µM [1, 13]: 98%; inhibition at 400 µM ([3]; read-out: HsG6PD Inhibition (%) at (400 μM), 400 μM compound): ~34%; Second-order inactivation constant (k2) ([4]; 0.2 mg/mL enzyme, 37 °C, 0–120 min): 0.97 M⁻¹ s⁻¹; IC50 [5]: 24.1 µM |
| CCCCOc1ccc(NC(=O)Nc2nc([N+](=O)[O-])cs2)cc1 [CNZ-7] | – | 85 | 68 | 60 | 150 | 0.97 | 8.7 | 60 | 640 | 74 | 25 | approximately 20% | CC50 at 48 h ([6]; HT29 cells): 529 µM; IC50 [10]: 274 µM |
| Cc1ncc([N+](=O)[O-])n1CCO [Metronidazole, reference compound] | – | – | – | – | – | – | 4.8 | – | – | – | – | – | CC50 Caco-2 (literature IC50) ([11]; metronidazole): 19 µM |
| CC(=O)Oc1ccccc1C(=O)Nc1ncc([N+](=O)[O-])s1 [Nitazoxanide, reference compound] | 78 | 100 | – | – | – | – | – | 12 | – | 7 | – | – | IC50 [5]: 4.2 µM; CC50 HT29 (literature IC50) [12]: > 50 µM; CC50 Caco-2 (literature IC50) ([11]; nitazoxanide): 26.8 µM |
| O=C(Nc1ccc([N+](=O)[O-])cc1)Nc1nc([N+](=O)[O-])cs1 [CNZ-8] | – | 75 | 43 | 80 | 80 | 0.6 | 15.2 | 41 | 633 | 41 | 25 | approximately 20% | CC50 at 48 h [6]: 622 µM |
